Data set [1] deals with Trichoplusia ni larva. The data set can be described thus: Leaf-disc choice bioassay on cabbage: dose-response and blend assay (Example 12). The class given is in vivo. The protocol:
T. ni larvae were raised from eggs (Insect Production Services, Natural Resources Canada) on a wheat-germ based artificial diet (McMorran diet, Insect Production Services, Natural Resources Canada), or raised from eggs from a laboratory colony of T. ni adults, at 22±1° C., 32-40% humidity, 9 h/15 h light/dark photoperiod.
Cabbage (Brassica oleracea L. cv. Golden Acre) plants were grown from seed (Pacific Northwest Seeds, Vernon, B.C.) in sandy loam soil in the laboratory at 21±1° C. beside a south-facing window. Plants received supplemental lighting from grow-lights emitting light of wavelengths 430 and 662 nm for 2 h/d. Plants were about 2-3 months old (with about 8-12 fully expanded leaves) at time of leaf collection for disc choice bioassays.
3c{3,6} was synthesized as described herein. Azadirachtin in a neem oil preparation (TreeAzin [5% azadirachtins A and B]) was obtained from BioForest Technologies Inc., Sault Step. Marie, Canada. Azadirachtin solutions were prepared fresh on the day of the bioassay to avoid degradation. Cetyl alcohol was obtained from Sigma, palmitic acid from BDH Chemicals Ltd., methanol (HPLC-grade) from Calcdon, and isopropanol (2-propanol-205, distilled in glass) from Calcdon Ammonium hydroxide solution was obtained from CanLab.
Blend and whole plant studies used a “vehicle” that consisted of palmitic acid (25 mM), cetyl alcohol (25 mM), and isopropanol (50%). The vehicle was prepared by dissolving palmitic acid and cetyl alcohol in isopropanol. The solution was neutralized with 1M NaOH, followed by step-wise dilution with water.
Leaf discs (disc area: 2.24 cm^2) cut with a no. 10 borer from cabbage plant leaves were painted on each side with 20 μL of treatment solution or solvent, using a Hamilton 25 μL glass syringe, and allowed to dry. One treatment and one control leaf disc were placed on opposite sides (5 cm apart) of a 9 cm diameter Petri dish containing moistened filter paper (Whatman #1, 70 mm). A fasting Trichoplusia ni larva was placed midway between the two leaf discs and oriented away from either disc. Replicate Petri dishes were kept in a plastic basin, protected from light, at 22±1° C. during the feeding period. Larvae fasted for approximately 7 h prior to the experiments. […]
Leaf disc areas consumed were measured using a Canon CanoS can LiDE 20 scanner, CanoScan Toolbox 4.1 software, Microsoft Office Picture Manager, and Un-Scan-It Gel and Graph Digitizing Software v. […]
In the dose-response study leaf-disc choice bioassays were performed with larvae in day 1 or 2 of the 3rd and 4th instar. […] There were not enough data points in the dose-response data for a sigmoidal fit, but the DC50 could be determined by linear regression analysis, as was the case for Akhtar et al. (2007). […]

In data set [2] the test system is third instar T. ni larvae. Nature of the data set: whole plant or invertebrate. Particulars: contact toxicity to larvae; negative or zero values replaced by 0.1 for the index (footnote b). As to the method:
(§1) Initial screening for feeding deterrent effects was conducted at 50 μg/cm^2 in feeding deterrent bioassays.
Mortality was determined 24 h after spraying larvae directly with test solutions. Third instar T. ni larvae were sprayed in 90 mm×15 mm Petri dishes (Falcon) lined with Fisher Scientific filter paper (90 mm diameter). Small plastic hand spraying bottles (50 mL capacity) were used. Larvae were then transferred to Petri dishes (90 mm×15 mm) with a small piece of artificial diet. Each Petri dish contained 10 larvae. Three replicates, each consisting of 10 larvae, were used per treatment.

The test system of data set [3] is third instar T. ni larvae. The data set can be described thus: Leaf disk choice feeding deterrence bioassay. It counts as in vivo, Trichoplusia ni.
Description: Cabbage plants (Brassica oleraceae var. Stonehead) used in the bioassays were routinely grown in plastic pots with a mixture of sandy loam soil and peat moss (4:1) in a greenhouse at the University of British Columbia, Vancouver, BC, Canada. Leaves were collected from cabbage plants that were 5-6 weeks old.
T. ni larvae and moths were obtained from a long established colony (>50 generations) maintained on an artificial diet, Velvetbean Caterpillar Diet No. F9796 [Bio-Sery Inc. (Frenchtown, NIL)] in the insectary of the University of British Columbia (UBC).
as §1
Larvae were given the choice of feeding on two leaf disks, one treated with 10 μL of a solution of the test substance painted on each side and the other treated with a carrier solvent alone. The number of larvae was 25 per treatment.
Feeding deterrence data (percent) for initial screening concentration were analyzed by analysis of variance (ANOVA) after arcsin transformation using statistics software (Statistix 7. Analytical Software, Statistix 7 for Windows 95, 98, NT, 2000. Analytical Software, Tallahassee).

Data set [4] relates to T. ni moths. Nature of the data set: Oviposition choice (deterrence) bioassay on cabbage leaves. It counts as in vivo, Trichoplusia ni. Conditions: Trichoplusia, 48 h, Table 8; at 0.25%; read-out: OD (%) Mean ± SE N = 35-40.
Data set [5] relates to T. ni neonates. The data set can be described thus: Greenhouse test on cabbage plants with T. ni neonates. It counts as in vivo, Trichoplusia ni. Particulars: for mean larval recovery / weight reduction: 6 days. The protocol:
[…] Cabbage plants had 3-5 leaves. Each plant was sprayed (˜1 ml/leaf) and dried before the introduction of insects. There were 3 replicates of 5 plants for each treatment. Approximately nine T. ni neonates (<24 h old) were transferred on each plant. They were weighed after 6 days of feeding on the treatments. Numbers of larvae recovered from each treatment were also recorded. […] The mean larval recovery was not affected at the lowest concentration (0.0002%).

Each structure is given as a SMILES string.

Results on two molecules are retold here after patent US9125406B2, “Methods and compositions for control of cabbage looper, trichoplusia ni” (Simon Fraser University, priority 2008, dated 2015).

On to `C/C=C(\C)C(=O)O[C@H]1C[C@@H](OC(C)=O)[C@@]2(C(=O)OC)CO[C@H]3[C@@H](O)[C@@](C)([C@]45O[C@@]4(C)[C@H]4C[C@@H]5O[C@@H]5OC=C[C@@]54O)[C@H]4[C@]1(CO[C@]4(O)C(=O)OC)[C@@H]32` [azadirachtin, reference compound], for which, in data set [1] (4.9 ug/cm^2 in vehicle, fifth instar larvae), the “FDI (%) mean (SE)” value is 43 (20) a %.

`C=CCOc1ccc(OCCC)cc1` [3c{3, 6}, 1-allyloxy-4-propoxybenzene]: the “% mortality” value in data set [2] is reported as −11 ^b %. Besides, the pest or weed control at 50 µg/cm2, 50 µg/cm2 in data set [3] (Trichoplusia, foliar, Table 8, 50 μg/cm^2, read-out: F.D (%) Mean ± SE N = 25) turned out to be 100%. In addition, the pest or weed control at 50 µg/cm2 in data set [3] (Trichoplusia, foliar, feeding deterrence (FD), Table 12, non-toxic feeding deterrents, read-out: % deterrence) is 100%. Also, the DC50 in data set [3] (feeding deterrence DC50, unit not given in Table 12) stood at 0.5 μg/cm^2; in data set [1] (3rd and 4th instar larvae, 83% methanol, linear regression 9 to 45 μg/cm^2), 27 μg/cm^2. The “FDI (%) mean (SE)” value in data set [1] (45 ug/cm^2) is given as 100 (0) b %; in data set [1] (45 ug/cm^2, listed as 3c{3,6}), 100±0%. The pest or weed control at 0.25 % in data set [4] was under 30%. Besides, the mean larval recovery entry was “not affected” in data set [5] (0.0002% spray), 66.7% in data set [5] (0.0005% spray) and 52% in data set [5] (0.001% spray). In data set [5] (0.0002% spray, 6 days feeding on cabbage plants), the “weight of the larvae” value is given as “not affected”. Besides, the weight reduction was 33.3% in data set [5] (0.0005% spray) and 48% in data set [5] (0.001% spray). The growth reduction in data set [5] (10 ppm, highest concentration) is about 50%.
